Patent US10807959B2, “WDR5-MLL1 inhibitors and modulators” (Vanderbilt University, priority 2018, dated 2020)

Tests used:
WDR5 = WDR5 (Homo sapiens (Human), UniProt P61964); assay: TR-FRET binding assay, displacement of 10mer-Thr-FAM probe from His-tagged WDR5; conditions: Inhibition of WDR5 by TR-FRET assay
Method: The LanthaScreenTM Elite Tb-anti-HIS Antibody from ThermoFisher Scientific was used for this purpose. […] The ratio of the 520 and 495 signals are then utilized to generate a dose-response curve to calculate an IC50 value. […] WDR[…] tag protein is used at 2 nM.

MV4:11 cells = assay: Cellular viability / anti-proliferative activity, CellTiter-Glo, 7 day protocol; type: cell-based, human; conditions: 168 h
Method: Anti proliferative activity using MLL-harboring cell lines. MV4:11 cells are grown in RPMI-1640 media supplemented with 10% FBS and 1% penicillin/streptomycin. Viability assays are performed by dispensing […] into each well of an opaque 384-well plate and adding compounds at the indicated concentrations in a final volume of 32 μL and a final concentration of DMSO of 0.1% for all samples. After a set incubation period, 7 day protocol, the viability of cells in each well is assessed using the CellTiter-Glo assay (Promega), read on a GloMax 96 Microplane Luminometer (Promega). Serial dilutions of each cell type are included in all assays to generate standard curves and determine assay measurements are taken within the dynamic range of the instrument. GI50 values are calculated based on three biological replicates, each with three technical replicates. Data are expressed as mean plus/minus S.E.M.

[1] = cellular proliferation of MV4:11 human cancer cell lines, 7 day

`COc1cc(OC)cc(C(C)NC(=O)c2cc(CNC3=NCCN3)cc(-c3ccc(F)nc3C)c2)c1` (stereo not shown) [Example 7, 3-(((4,5-Dihydro-1H-imidazol-2-yl)amino)methyl)-N-(1-(3,5-dimethoxyphenyl)ethyl)-5-(6-fluoro-2-methylpyridin-3-yl)benzamide] gave a Ki (WDR5) of 0.00011 µM and a GI50 (MV4:11 cells; [1]) of 0.28 µM.

Work on `Cc1cc(-c2cc(CNC3=NCCN3)cc(C(=O)NCc3ccc(Cl)c(C)c3)c2)cc(C)n1` [Example 41, N-(4-chloro-3-methylbenzyl)-3-(((4,5-dihydro-1H-imidazol-2-yl)amino)methyl)-5-(2,6-dimethylpyridin-4-yl)benzamide] yielded a Ki (WDR5) of less than 0.0001 µM and a GI50 (MV4:11 cells; [1]) of 0.17 µM.

With `COc1ccnc(CNC(=O)c2cc(CNC3=NCCC3)cc(-c3ccc(F)nc3C)c2)c1` [Example 53, 3-(((3,4-Dihydro-2H-pyrrol-5-yl)amino)methyl)-5-(6-fluoro-2-methylpyridin-3-yl)-N-((4-methoxypyridin-2-yl)methyl)benzamide] the Ki (WDR5) was 0.00053 µM and the GI50 (MV4:11 cells; [1]) was 0.63 µM.

For `Cc1cc(C(C)NC(=O)c2cc(CNC3=NCCC3)cc(-c3ccc(F)nc3C)c2)ncc1Cl` (stereo not shown) [Example 54, N-(1-(5-Chloro-4-methylpyridin-2-yl)ethyl)-3-(((3,4-dihydro-2H-pyrrol-5-yl)amino)methyl)-5-(6-fluoro-2-methylpyridin-3-yl)benzamide], the Ki (WDR5) was 0.00031 µM and the GI50 (MV4:11 cells; [1]) was 0.18 µM.

`COc1cc(OC)cc(C(C)NC(=O)c2cc(CNC3=NCCC3)cc(-c3ccc(F)nc3C)c2)c1` (stereo not shown) [Example 55, 3-(((3,4-Dihydro-2H-pyrrol-5-yl)amino)methyl)-N-(1-(3,5-dimethoxyphenyl)ethyl)-5-(6-fluoro-2-methylpyridin-3-yl)benzamide] was tested, and the Ki (WDR5) was 0.011 µM and the GI50 (MV4:11 cells; [1]) was 0.44 µM.

`COc1cc(CN(C)C(=O)c2cc(CNC3=NCCC3)cc(-c3ccc(F)nc3C)c2)cc(OC)c1` [Example 56, 3-(((3,4-Dihydro-2H-pyrrol-5-yl)amino)methyl)-N-(3,5-dimethoxybenzyl)-5-(6-fluoro-2-methylpyridin-3-yl)-N-methylbenzamide] showed a Ki (WDR5) of 0.02 µM and a GI50 (MV4:11 cells; [1]) of 6.4 µM.

`COc1cc(CNC(=O)c2cc(CNC3=NCCC3)cc(-c3ccnc(C)c3)c2)cc(OC)c1` [Example 57, 3-(((3,4-Dihydro-2H-pyrrol-5-yl)amino)methyl)-N-(3,5-dimethoxybenzyl)-5-(2-methylpyridin-4-yl)benzamide] gave a Ki (WDR5) of 0.003 µM and a GI50 (MV4:11 cells; [1]) of 2.8 µM.

`COc1cc(CNC(=O)c2cc(CNC3=NCCC3)cc(-c3ccc(F)cc3C)c2)cc(OC)c1` [Example 59, 5-(((3,4-Dihydro-2H-pyrrol-5-yl)amino)methyl)-N-(3,5-dimethoxybenzyl)-4′-fluoro-2′-methyl-[1,1′-biphenyl]-3-carboxamide] gave a Ki (WDR5) of 0.00074 µM and a GI50 (MV4:11 cells; [1]) of 0.79 µM.

Molecule `COc1cc(CNC(=O)c2cc(CNC3=NCCC3)cc(-c3ccc(F)nc3C)c2)cc(OC)c1` [Example 60, 3-(((3,4-Dihydro-2H-pyrrol-5-yl)amino)methyl)-N-(3,5-dimethoxybenzyl)-5-(6-fluoro-2-methylpyridin-3-yl)benzamide] has a Ki (WDR5) of 0.00055 µM and a GI50 (MV4:11 cells; [1]) of 0.36 µM.

`Cc1cc(CNC(=O)c2cc(CNC3=NCCC3)cc(-c3cccc(CO)c3)c2)ccc1Cl` [Example 63, N-(4-Chloro-3-methylbenzyl)-5-(((3,4-dihydro-2H-pyrrol-5-yl)amino)methyl)-3′-(hydroxymethyl)-[1,1′-biphenyl]-3-carboxamide] showed a Ki (WDR5) of 0.00088 µM and a GI50 (MV4:11 cells; [1]) of 1.9 µM.

With `Cc1cc(CNC(=O)c2cc(CNC3=NCCC3)cc(-c3cccnc3C(F)(F)F)c2)ccc1Cl` [Example 67, N-(4-Chloro-3-methylbenzyl)-3-(((3,4-dihydro-2H-pyrrol-5-yl)amino)methyl)-5-(2-(trifluoromethyl)pyridin-3-yl)benzamide] the Ki (WDR5) was less than 0.0001 µM and the GI50 (MV4:11 cells; [1]) was 0.05 µM.

Work on `Cc1cc(CNC(=O)c2cc(CNC3=NCCC3)cc(-c3ccc(F)cc3C(F)(F)F)c2)ccc1Cl` [Example 68, N-(4-chloro-3-methylbenzyl)-5-(((3,4-dihydro-2H-pyrrol-5-yl)amino)methyl)-4′-fluoro-2′-(trifluoromethyl)-[1,1′-biphenyl]-3-carboxamide] yielded a Ki (WDR5) of 0.0003 µM and a GI50 (MV4:11 cells; [1]) of 0.16 µM.

`COc1cc(F)ccc1-c1cc(CNC2=NCCC2)cc(C(=O)NCc2ccc(Cl)c(C)c2)c1` [Example 70, N-(4-chloro-3-methylbenzyl)-5-(((3,4-dihydro-2H-pyrrol-5-yl)amino)methyl)-4′-fluoro-2′-methoxy-[1,1′-biphenyl]-3-carboxamide] gave a Ki (WDR5) of 0.0005 µM and a GI50 (MV4:11 cells; [1]) of 0.46 µM.

Molecule `Cc1cc(CNC(=O)c2cc(CNC3=NC(=O)CN3C)cc(-c3ccc(F)nc3C)c2)ccc1Cl` [Example 71, N-(4-Chloro-3-methylbenzyl)-3-(6-fluoro-2-methylpyridin-3-yl)-5-(((1-methyl-4-oxo-4,5-dihydro-1H-imidazol-2-yl)amino)methyl)benzamide] has a Ki (WDR5) of 0.0066 µM and a GI50 (MV4:11 cells; [1]) of 5 µM.

With `Cc1cc(CNC(=O)c2cc(CNC3=NCCN3)cc(-c3ccc(F)nc3C)n2)ccc1Cl` [Example 74, N-(4-Chloro-3-methylbenzyl)-4-(((4,5-dihydro-1H-imidazol-2-yl)amino)methyl)-6′-fluoro-2′-methyl-[2,3′-bipyridine]-6-carboxamide] the Ki (WDR5) was 0.00046 µM and the GI50 (MV4:11 cells; [1]) was 0.68 µM.

For `Cc1ccnc(C(NC(=O)c2cc(CNC3=NCCC3)cc(-c3ccc(F)cc3C(F)(F)F)n2)C2CC2)c1` (stereo not shown) [Example 90, N-(Cyclopropyl(4-methylpyridin-2-yl)methyl)-4-(((3,4-dihydro-2H-pyrrol-5-yl)amino)methyl)-6-(4-fluoro-2-(trifluoromethyl)phenyl)picolinamide], the Ki (WDR5) was 0.0012 µM and the GI50 (MV4:11 cells; [1]) was 0.75 µM.

`COc1cc(CNC(=O)c2cc(CNC3=NCCC3)nc(-c3ccc(F)cc3C(F)(F)F)c2)cc(OC)c1` [Example 91, 2-(((3,4-dihydro-2H-pyrrol-5-yl)amino)methyl)-N-(3,5-dimethoxybenzyl)-6-(4-fluoro-2-(trifluoromethyl)phenyl)isonicotinamide] gave a Ki (WDR5) of 0.0016 µM and a GI50 (MV4:11 cells; [1]) of 0.46 µM.

With `CCn1cc(-c2cc(CNC(=N)C3CC3)cc(C(=O)N[C@H](c3ccc(F)c(C)c3)C3CC3)c2)c(C(F)(F)F)n1` [Example 105, (S)-3-(Cyclopropanecarboximidamidomethyl)-N-(cyclopropyl(4-fluoro-3-methylphenyl)methyl)-5-(1-ethyl-3-(trifluoromethyl)-1H-pyrazol-4-yl)benzamide] the Ki (WDR5) was less than 0.0001 µM and the GI50 (MV4:11 cells; [1]) was 0.01 µM.

In the case of `CCn1cc(-c2cc(CNC(=N)C3CCC3)cc(C(=O)N[C@H](c3ccc(F)c(C)c3)C3CC3)c2)c(C(F)(F)F)n1` [Example 106, (S)-3-(Cyclobutanecarboximidamidomethyl)-N-(cyclopropyl(4-fluoro-3-methylphenyl)methyl)-5-(1-ethyl-3-(trifluoromethyl)-1H-pyrazol-4-yl)benzamide], the Ki (WDR5) is reported as less than 0.0001 µM and the GI50 (MV4:11 cells; [1]) is reported as 0.03 µM.

For `O=C(NCc1ccc(Cl)c(Cl)c1)c1cc(Cn2ccnc2)cc(-c2ccc(F)cc2Cl)c1` [Example 116, 5-((1H-Imidazol-1-yl)methyl)-2′-chloro-N-(3,4-dichlorobenzyl)-4′-fluoro-[1,1′-biphenyl]-3-carboxamide], the GI50 (MV4:11 cells; [1]) was 3.8 µM.

`Cc1cc(F)ccc1-c1cc(Cn2ccnc2C)cc(C(=O)NCc2ccc(Cl)c(Cl)c2)n1` [Example 156, N-(3,4-dichlorobenzyl)-6-(4-fluoro-2-methylphenyl)-4-((2-methyl-1H-imidazol-1-yl)methyl)picolinamide] showed a GI50 (MV4:11 cells; [1]) of 0.63 µM.

Work on `COc1cc(OC)cc(C(C)NC(=O)c2cc(Cn3ccnc3C)cc(-c3ccc(F)nc3C)n2)c1` (stereo not shown) [Example 159, N-(1-(3,5-Dimethoxyphenyl)ethyl)-6′-fluoro-2′-methyl-4-((2-methyl-1H-imidazol-1-yl)methyl)-[2,3′-bipyridine]-6-carboxamide] yielded a Ki (WDR5) of 0.0039 µM and a GI50 (MV4:11 cells; [1]) of 1.2 µM.

With `Cc1nc(F)ccc1-c1cc(Cn2ccnc2C)cc(C(=O)NCc2ccc(Cl)c(Cl)c2)n1` [Example 164, N-(3,4-dichlorobenzyl)-6′-fluoro-2′-methyl-4-((2-methyl-1H-imidazol-1-yl)methyl)-[2,3′-bipyridine]-6-carboxamide] the GI50 (MV4:11 cells; [1]) was 1.1 µM.

Molecule `Cc1cnccc1-c1cc(Cn2ccnc2C)cc(C(=O)NCc2ccc(Cl)c(Cl)c2)n1` [Example 166, N-(3,4-Dichlorobenzyl)-3′-methyl-4-((2-methyl-1H-imidazol-1-yl)methyl)-[2,4′-bipyridine]-6-carboxamide] has a GI50 (MV4:11 cells; [1]) of 0.24 µM.

In the case of `COc1cc(CNC(=O)c2cc(CNC3=NCCC3)cc(-c3ccc(F)cc3C)c2N)cc(OC)c1` [Example 168, 2-Amino-5-(((3,4-dihydro-2H-pyrrol-5-yl)amino)methyl)-N-(3,5-dimethoxybenzyl)-4′-fluoro-2′-methyl-[1,1′-biphenyl]-3-carboxamide], the Ki (WDR5) is reported as 0.0052 µM and the GI50 (MV4:11 cells; [1]) is reported as 4.8 µM.

`COc1cc(CNC(=O)c2cc(CNC3=NCCN3)cc(-c3ccc(F)cc3C)c2N)cc(OC)c1` [Example 169, 2-Amino-5-(((4,5-dihydro-1H-imidazol-2-yl)amino)methyl)-N-(3,5-dimethoxybenzyl)-4′-fluoro-2′-methyl-[1,1′-biphenyl]-3-carboxamide] gave a Ki (WDR5) of 0.0061 µM and a GI50 (MV4:11 cells; [1]) of 14 µM.

For `COc1cc(CNC(=O)c2ccc(F)c(CNC3=NCCN3)c2)cc(OC)c1` [Example B15, 3-(((4,5-dihydro-1H-imidazol-2-yl)amino)methyl)-N-(3,5-dimethoxybenzyl)-4-fluorobenzamide], the GI50 (MV4:11 cells; Homo sapiens, MV4:11 leukemia cells after a 7 day incubation period) was 0.893 µM.
